Assay results reported in the NIST ThermoML archive (doi:10.1021/je700140j).

Experiment: xn = mol fraction of the nth substance listed
Details: for surface tension liquid-gas: Ring tensiometer; for mass density / viscosity: 100.8 kPa, Liquid

OCCc1ccccc1 [2-phenylethanol] + OCc1ccccc1
Details	mass density, 298.15 K [kg/m3]	mass density, 308.15 K [kg/m3]	mass density, 318.15 K [kg/m3]	surface tension liquid-gas, 298.15 K [mN/m]	surface tension liquid-gas, 308.15 K [mN/m]	surface tension liquid-gas, 318.15 K [mN/m]	viscosity, 298.15 K [mPa·s]	viscosity, 308.15 K [mPa·s]	viscosity, 318.15 K [mPa·s]
x2 = 0	1016.2	1008.63	1000.98	39.43	38.93	38.35	11.4	7.518	5.232
x2 = 0.05	1018.11	1010.83	1003.42	–	–	–	11.07	7.322	5.116
x2 = 0.1	1020.14	1013.11	1005.98	39.2	38.7	38.11	10.73	7.132	5
x2 = 0.15	1022.33	1015.32	1008.23	–	–	–	10.41	6.94	4.883
x2 = 0.2	1024.45	1017.42	1010.36	39	38.48	37.86	10.08	6.752	4.77
x2 = 0.25	1026.56	1019.52	1012.41	–	–	–	9.759	6.564	4.655
x2 = 0.3	1028.52	1021.44	1014.25	38.83	38.28	37.63	9.44	6.372	4.542
x2 = 0.35	1030.34	1023.25	1015.99	–	–	–	9.125	6.186	4.43
x2 = 0.4	1032.11	1024.95	1017.65	38.7	38.1	37.41	8.816	5.999	4.32
x2 = 0.45	1033.8	1026.61	1019.28	–	–	–	8.506	5.815	4.21
x2 = 0.5	1035.25	1028.06	1020.74	38.6	37.95	37.21	8.203	5.636	4.101
x2 = 0.55	1036.33	1029.16	1021.87	–	–	–	7.913	5.467	3.997
x2 = 0.6	1037.32	1030.12	1022.84	38.6	37.9	37.12	7.628	5.302	3.897
x2 = 0.65	1038.01	1030.89	1023.63	–	–	–	7.351	5.14	3.797
x2 = 0.7	1038.62	1031.56	1024.26	38.6	37.85	37.02	7.081	4.979	3.697
x2 = 0.75	1039.06	1031.9	1024.63	–	–	–	6.813	4.821	3.599
x2 = 0.8	1039.43	1032.23	1024.86	38.6	37.8	36.92	6.554	4.666	3.5
x2 = 0.85	1039.72	1032.44	1024.99	–	–	–	6.296	4.519	3.402
x2 = 0.9	1040	1032.65	1025.18	38.6	37.76	36.84	6.036	4.374	3.306
x2 = 0.95	1040.59	1033.06	1025.43	–	–	–	5.787	4.232	3.213
